Measurements published in patent US7133717B2, “Tissue electroperforation for enhanced drug delivery and diagnostic sampling” (Johnson & Johnson Consumer Companies, Inc., priority 1999, dated 2006).

Assays:
Type in all cases: in vivo
Settings in all cases: two pigs
[1] = Electroperforation (25 pores/cm^2) followed by passive diffusion of erythropoietin for transdermal delivery, plasma erythropoietin by ELISA
Protocol: (§1) To evaluate the pore transport pathway created through the stratum corneum of the skin by electroperforation, an in vivo experiment was conducted on the back skin of Yorkshire pigs (female, ˜12 kg) using an electrosurgery apparatus (Surgitron™, Ellman International, Inc., Hewlett, N.Y.). The pigs were immobilized with appropriate anesthetics and analgesics. Electrofulguration current was used with a fine wire electrode (0.26 mm in diameter) and power output setting at between scale 3 to 10. A small pore was created on the surface of the skin by carefully moving the electrode towards the skin until the tip of the electrode almost touched the skin. The electrode was quickly moved away from the skin as soon as an electric arc appeared in the gap between the electrode tip and the skin surface.
An electroperforation procedure was conducted in two pigs similar to that in Example 3, followed by passive diffusion of erythropoietin (20 kU/ml, Procrit®, Ortho Biotech, Inc., Raritan, N.J.) at the treatment site. There were 25 pores/cm^2 generated with electroperforation on each pig. The drug chamber based over the electroperforation-treated skin area contained 0.5 ml of erythropoietin solution. Blood samples were collected for erythropoietin analysis with an ELISA method. The erythropoietin delivery procedure was carried out for 7 hours. […]

[2] = test system: pigs; assay: Electroperforation (39 pores/cm^2) followed by passive diffusion of insulin for transdermal delivery, blood glucose monitoring
Protocol: as §1
The electroperforation procedure described in Example 1 was conducted in two pigs with a pore density of 39 pores/cm^2 of the skin and subsequently followed by transdermal insulin delivery with passive diffusion. An insulin-containing chamber was immediately placed onto the electroperforation-treated skin. […] Blood glucose of the pigs was monitored by obtaining blood samples of the ear vein, which were analyzed using two blood glucose analyzers separately to assure the accuracy (One Touch® Basic, LifeScan, Inc., Milpitas, Calif.).

[3] = test system: pigs; assay: Electroperforation (9 pores/cm^2) followed by passive diffusion and iontophoresis of insulin for transdermal delivery, blood glucose monitoring
Protocol: as §1
An electroperforation procedure was conducted in two pigs similar with a pore density of 9 pores/cm^2 on the skin and subsequently was followed by transdermal insulin delivery. The purpose of using a lower pore density in this experiment was to examine the effect of pore number (e.g., the extent of the transport pathway available) to transdermal insulin delivery. The same insulin-containing chamber and drug application procedures were used in this experiment as those in the Example 2. […]

For erythropoietin, the plasma erythropoietin concentrations ([1]; one day after the delivery experiment) was “still above the endogenous basal level” and the plasma erythropoietin concentration ([1]; passive diffusion, 0.5 ml of 20 kU/ml solution, during the 7 hour delivery until chambers removed) was “progressive increase”.

For insulin, the blood glucose reduction ([2]; 0.5 ml insulin solution 100 U/ml, contact area 2.3 cm^2) was “greater than 50 % of the basal level”, the blood glucose levels ([2]; from the onset of insulin delivery) was “declined rather quickly” and the blood glucose reduction ([3]; during iontophoresis, 4 mA DC, two 30-minute sections at 1.5 hour and 3 hour) was “rapid blood glucose reduction”. The blood glucose levels ([3]; first 1.5 hours, passive diffusion only) was “did not decline”.
